Data: patent publication US6509377B1, “Use of a 2-hydroxy-4-trifluoromethylbenzoic acid derivatives as inhibitors of the activation of the nuclear transcription factor NF-κB” (J. Uriach & Cia, S.A., priority 1999, dated 2003)

Tests used:
[1] = tested on: NF-κB; assay: Activation of NF-κB induced by TNF-α in HUVEC (EMSA); type: cell-based, human; conditions: 2 and 4 mM, TNF-α 100 U/ml, 90 minutes
Experimental: Human umbilical vein endothelial cells (HUVEC) were obtained by the procedure of Dejana et al. (J. Cell Biol 1987, 104(5), 1403-1411) by treatment of the umbilical vein with. 0.2% collagenase P from C. histolyticum (Boehnnger Manheim GmbH, Manheim, Germany) for 20 minutes at 37° C. Next, cells were cultured in M199 medium (Flow Lab, Herts, U.K.) containing 100 U/ml penicillin, 100 μg/ml streptomycin, 2.5 μg/ml amphotercin B and 20% fetal calf serum. Primary cultures were plated in 25 cm^2 plastic flasks. After 24 hours cells were washed to remove those cells which had not adhered to the flask surface. Then, the same medium containing 10% fetal calf serum, 50 μg/ml endothelial cell growth supplement factor and 100 μg/ml heparn was added. After culturing for 5-7 days, cells reached confluence and were detached from the flask surface with 0.05% trypsin and 0.02% EDTA (Flow Lab). The reaction was inhibited by the addition of fetal calf serum, and then cells were washed and plated again in culture medium. Cells were grown to confluence in gelatin-coated flasks. Cells used for the experiments were from passages 2-7.
In this experiment, HUVEC cells were preincubated with Triflusal and HTB, at concentrations in both cases of 2 and 4 mM. Then these cells were stimulated with 100 U/ml TNF-α (Genzyme Diagnostics, Cambridge, Mass. USA) for 90 minutes. […]

[2] = tested on: COX-2; assay: PGE2 production induced by LPS in human PBMC (ELISA); type: cell-based; conditions: LPS 10 μg/ml, 19 hours, 0.1-5 mM
Experimental: Mononuclear cells (PBMC) were obtained from blood of healthy donors from the Hospital de Sant Pau, (Barcelona) who had not taken any antiinflammatory drug during a period of not less than 2 weeks before blood extraction. Starting from a volume of about 80 ml of heparinized human blood (10 U/ml), this was diluted (1:1) with PBS (pH 7.4; Dulbecco) without calcium, magnesium nor sodium bicarbonate. 15 ml of Ficoll solution (d=1.077 at 20° C.; Biochrom KG) were placed in 50-ml Falcon tubes. To this solution a volume of about 25 ml per tube of the blood previously diluted with PBS was carefully added and the tubes were then centrifuged at 1,200 g for 20 minutes. Mononudear cells concentrate on a whitish interphase between the plasma and the Ficoll solution. This interphase was collected with a Pasteur pipette and was diluted 1:1 with PBS. It was then centrifuged at 300 g, 10 min. The resulting pellet was resuspended in 50 ml PBS and was again centrifuged at 200 g for 10 min in order to remove platelet contamination. Finally, the resulting pellet was resuspended in 20 ml RPMI-1640 culture medium (GibcoBRL) supplemented with 10% fetal calf serum. […]
Finally, the supernatants from each experiment that had been stored at −70° C. were defrozen and the amount of PGE2 in solution was determined using specific ELISA kits (Amershan-Biotrak RPN22).

[3] = tested on: TNF-α; assay: TNF-α production induced by LPS in human PBMC (enzymatic immunoassay); type: cell-based; conditions: LPS 10 μg/ml, 19 hours
Experimental: Mononuclear cells (PBMC) were obtained from blood of healthy donors from the Hospital de Sant Pau (Barcelona) following the procedure described in example 3. Cells were diluted at a concentration of 2 million/ml in RPMI medium supplemented with 10% fetal calf serum and were incubated (37° C., 5% CO2) with triflusal, HTB or vehicle (DMSO) in the presence of 10 μg/ml E.coli lipopolysaccharide (LPS, 026:B6 serotype; Sigma), for 19 hours. The cell suspension was then centrifuged at 2,000 g for 10 minutes at 4° C., and the resulting supernatant was stored at −70° C. for later analysis. The cytokine content was determined by enzymatic immunoassay, after 1/100 dilution of the samples.

| Structure (SMILES) | inhibition of the activation of NF-κB induced by TNF-α [1] | inhibition of PGE2 production [2] | inhibition of LPS-induced TNF-α production ([3]; 0.3 mM) | inhibition of LPS-induced TNF-α production ([3]; 1 mM) |
| --- | --- | --- | --- | --- |
| O=C(O)c1ccc(C(F)(F)F)cc1O [HTB, 2-hydroxy-4-trifluoromethylbenzoic acid] | concentration-dependently inhibit | concentration-dependently inhibit | almost completely inhibit | almost completely inhibit |
| CC(=O)Oc1cc(C(F)(F)F)ccc1C(=O)O [triflusal, 2-Acetyloxy-4-trifluoromethylbenzoic acid, reference compound] | concentration-dependently inhibit | concentration-dependently inhibit | almost completely inhibit | almost completely inhibit |
